Experimental data as given in patent US20230066011A1, “PYRROLOPYRIMIDINE DERIVATIVE, AND PHARMACEUTICAL COMPOSITION FOR PREVENTING OR TREATING PROTEIN KINASE-RELATED DISEASE COMPRISING SAME AS ACTIVE INGREDIENT” (VORONOI CO., LTD., priority 2019, published 2023).

Key:
[1] = biological target: T1, TTK (Homo sapiens, UniProt P33981); assay: TTK enzyme inhibition, ADP-Glo kinase assay; assay type: biochemical; set-up: purchased SignalChem T20-10G; details: ATP 5 μM
T1 sequence (P33981 1-857): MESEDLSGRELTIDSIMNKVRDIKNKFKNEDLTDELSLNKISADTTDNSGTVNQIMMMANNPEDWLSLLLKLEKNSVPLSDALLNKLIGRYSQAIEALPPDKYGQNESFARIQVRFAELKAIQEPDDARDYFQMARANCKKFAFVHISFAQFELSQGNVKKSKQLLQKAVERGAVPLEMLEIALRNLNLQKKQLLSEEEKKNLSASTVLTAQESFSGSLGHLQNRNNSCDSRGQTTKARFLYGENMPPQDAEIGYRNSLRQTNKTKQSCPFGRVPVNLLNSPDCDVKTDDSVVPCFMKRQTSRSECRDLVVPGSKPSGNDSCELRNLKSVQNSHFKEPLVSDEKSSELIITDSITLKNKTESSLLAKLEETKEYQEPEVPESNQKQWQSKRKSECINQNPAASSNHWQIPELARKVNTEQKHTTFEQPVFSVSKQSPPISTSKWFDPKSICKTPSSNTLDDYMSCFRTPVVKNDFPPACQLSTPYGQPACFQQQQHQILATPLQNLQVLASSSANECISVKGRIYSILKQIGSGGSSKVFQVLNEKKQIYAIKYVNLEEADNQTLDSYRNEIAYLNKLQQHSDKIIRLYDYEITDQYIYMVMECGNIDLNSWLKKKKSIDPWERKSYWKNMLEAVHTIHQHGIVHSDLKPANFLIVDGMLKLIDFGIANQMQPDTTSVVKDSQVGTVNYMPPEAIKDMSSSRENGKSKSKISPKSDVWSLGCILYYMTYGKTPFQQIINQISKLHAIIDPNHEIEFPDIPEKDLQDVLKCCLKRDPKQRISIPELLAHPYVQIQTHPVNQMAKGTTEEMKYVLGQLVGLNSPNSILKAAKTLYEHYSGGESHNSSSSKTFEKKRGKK
How it was run: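 Purified human TTK (7.5 ng) was reacted with 5 μM ATP and 0.2 μg MBP substrate for 4 h at 25 °C in 40 mM Tris-HCl pH 7.4, 20 mM MgCl2, 0.1 mg/mL BSA, 50 μM DTT. ADP formation was read by ADP-Glo luminescence, and IC50 was taken relative to solvent control.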

[2] = biological target: T2, human GST-CLK1 (Homo sapiens, UniProt P49759); assay: GST-CLK1 enzyme inhibition, ADP-Glo kinase assay; assay type: biochemical; details: ATP 10 μM, GST-CLK1 129-end
T2 construct: purified human GST-CLK1 (129-end, SignalChem) enzyme; purchased SignalChem
T2 sequence (P49759 129-484 limits assumed): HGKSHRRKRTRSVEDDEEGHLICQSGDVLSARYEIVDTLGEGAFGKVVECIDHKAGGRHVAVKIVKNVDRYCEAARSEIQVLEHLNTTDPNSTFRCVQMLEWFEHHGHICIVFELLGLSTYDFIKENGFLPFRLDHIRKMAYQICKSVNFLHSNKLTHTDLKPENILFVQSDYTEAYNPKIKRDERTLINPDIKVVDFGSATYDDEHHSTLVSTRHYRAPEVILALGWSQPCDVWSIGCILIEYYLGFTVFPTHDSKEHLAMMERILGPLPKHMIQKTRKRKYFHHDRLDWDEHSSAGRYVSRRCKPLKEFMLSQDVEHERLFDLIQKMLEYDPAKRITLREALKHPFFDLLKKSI
How it was run: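 ADP-Glo luminescence read-out, relative to untreated solvent control, gave IC50 (nM) from triplicate data sets. Reactions ran an hour at 25° C with 3 ng GST-CLK1 (residues 129-end), 10 μM ATP and specific substrate in Tris-HCl pH 7.4 buffer with MgCl2, BSA and DTT.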

[3] = test system: human DYRK1A and tau; assay: Inhibition of tau phosphorylation, ClariCELL Kinase Cell-Based Assay, HEK 293 cells expressing human DYRK1A and tau; details: for inhibition at 1 µM: HEK293, read-out: % inhibition at 1 uM, tau phosphorylation, compound 1 uM; for inhibition at 0.25 µM / inhibition at 0.5 µM: HEK293, tau phosphorylation; for inhibition at 0.25 µM: compound 0.25 uM; for inhibition at 0.5 µM: compound 0.5 uM
How it was run: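 Cell-based service assay: HEK 293 cells transiently expressing human DYRK1A and tau were treated with compound and lysed. Released tau was plate-captured and its phosphorylation quantified by ELISA with a phospho-tau-specific antibody.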

| Structure (SMILES) | IC50 [1] [nM] | IC50 [2] [nM] | inhibition at 1 µM [3] [%] | inhibition at 0.25 µM [3] [%] | inhibition at 0.5 µM [3] [%] |
| --- | --- | --- | --- | --- | --- |
| CNc1nc(Nc2ccc(S(=O)(=O)N3CCC(N4CCOCC4)CC3)cc2OC)nc2[nH]cc(C(F)(F)F)c12 [Example 157, N^2-(2-methoxy-4-((4-morpholinopiperidin-1-yl)sulfonyl)phenyl)-N^4-methyl-5-(trifluoromethyl)-7H-pyrrolo[2,3-d]pyrimidine-2,4-diamine 2,2,2-trifluoroacetate] | < 100 | < 100 | 83.9 | 41.2 | 71 |
| CCNc1nc(Nc2ccc(S(=O)(=O)N3CCC(N4CCOCC4)CC3)cc2OC)nc2[nH]cc(C(F)(F)F)c12 [Example 158, N^4-ethyl-N^2-(2-methoxy-4-((4-morpholinopiperidin-1-yl)sulfonyl)phenyl)-5-(trifluoromethyl)-7H-pyrrolo[2,3-d]pyrimidine-2,4-diamine 2,2,2-trifluoroacetate] | < 100 | < 100 | 66.8 | 25.4 | 59.7 |
| CCCNc1nc(Nc2ccc(S(=O)(=O)N3CCC(N4CCOCC4)CC3)cc2OC)nc2[nH]cc(C(F)(F)F)c12 [Example 161, N^2-(2-methoxy-4-((4-morpholinopiperidin-1-yl)sulfonyl)phenyl)-N^4-propyl-5-(trifluoromethyl)-7H-pyrrolo[2,3-d]pyrimidine-2,4-diamine] | 101 to 300 | – | 50 | 0 | 27.9 |
| CNc1nc(Nc2ccc(C(=O)N3CCC(N4CCOCC4)CC3)c3c2OCC3)nc2[nH]cc(C(F)(F)F)c12 [Example 217, (7-((4-(methylamino)-5-(trifluoromethyl)-7H-pyrrolo[2,3-d]pyrimidin-2-yl)amino)-2,3-dihydrobenzofuran-4-yl)(4-morpholinopiperidin-1-yl)methanone] | < 100 | < 100 | 77.9 | 32 | 63.7 |
| CNc1nc(Nc2ccc(S(=O)(=O)N3CCC(N4CCOCC4)CC3)c3c2OCCO3)nc2[nH]cc(C(F)(F)F)c12 [Example 219, N^4-methyl-N^2-(8-((4-morpholinopiperidin-1-yl)sulfonyl)-2,3-dihydrobenzo[b][1,4]dioxin-5-yl)-5-(trifluoromethyl)-7H-pyrrolo[2,3-d]pyrimidine-2,4-diamine] | < 100 | < 100 | 84.2 | 42.1 | 58.8 |
| COc1cc(S(=O)(=O)N2CCC(N3CCOCC3)CC2)ccc1Nc1nc(C2CC2)c2c(C#N)c[nH]c2n1 [Example 224, 4-cyclopropyl-2-((2-methoxy-4-((4-morpholinopiperidin-1-yl)sulfonyl)phenyl)amino)-7H-pyrrolo[2,3-d]pyrimidine-5-carbonitrile] | < 100 | 101 to 300 | 39.9 | 3.6 | 15.6 |
| O=C(c1ccc(Nc2nc(C3CC3)c3c(C(F)(F)F)c[nH]c3n2)c2c1OCCO2)N1CCC(N2CCOCC2)CC1 [Example 228, (8-((4-cyclopropyl-5-(trifluoromethyl)-7H-pyrrolo[2,3-d]pyrimidin-2-yl)amino)-2,3-dihydrobenzo[b][1,4]dioxin-5-yl)(4-morpholinopiperidin-1-yl)methanone] | < 100 | < 100 | 49 | 9.3 | 24.7 |
| COCCNc1nc(Nc2ccc(C(=O)N3CCC(N4CCOCC4)CC3)c3c2OCC3)nc2[nH]cc(C#N)c12 [Example 359, 4-((2-methoxy-ethyl)ami-no)-2-((4-(4-morpholino-piperidine-1-carbonyl)-2,3-dihydro-benzofuran-7-yl)amino)-7H-pyrrolo[2,3-d]pyrimidine-5-carbonitrile] | < 100 | < 100 | 55.9 | 23.4 | 42.8 |
| CNc1nc(Nc2ccc(C(=O)N3CCN(C4COC4)CC3)c3c2OCCO3)nc2[nH]cc(C(F)(F)F)c12 [Example 397, (8-((4-(methylamino)-5-(trifluoromethyl)-7H-pyrrolo[2,3-d]pyrimidin-2-yl)amino)-2,3-dihydrobenzo[b] [1,4]dioxin-5-yl) (4-(oxetan-3-yl)piperazin-1-yl)methanone] | < 100 | < 100 | 52.8 | 12.9 | 41.1 |
| COCCNc1nc(Nc2ccc(C(=O)N3CCN(C4COC4)CC3)c3c2OCCO3)nc2[nH]cc(C(F)(F)F)c12 [Example 403, (8-((4-((2-methoxyethyl)-amino)-5-(trifluoromethyl)-7H-pyrrolo[2,3-d]pyrimidin-2-yl)amino)-2,3-dihydrobenzo[b] [1,4]dioxin-5-yl) (4-(oxetan-3-yl)piperazin-1-yl)methanone] | < 100 | < 100 | – | – | – |
| COc1cc(P2(=O)CCN(C3CC3)CC2)ccc1Nc1nc(NC2CCCC2)c2c(C(F)(F)F)c[nH]c2n1 [Example 413] | < 100 | 301 to 1000 | – | – | – |
| O=C(c1ccc(Nc2nc(NC3CCCC3)c3c(C(F)(F)F)c[nH]c3n2)c2c1OCCO2)N1CCN(C2COC2)CC1 [Example 414, (8-((4-(cyclopentyl-amino)-5-(trifluoromethyl)-7H-pyrrolo[2,3-d]pyrimidin-2-yl)amino)-2,3-dihydrobenzo[b] [1,4]dioxin-5-yl) (4-(oxetan-3-yl)piperazin-1-yl)methanone] | < 100 | < 100 | – | – | – |
| O=C(c1ccc(Nc2nc(NC3CCCCC3)c3c(C(F)(F)F)c[nH]c3n2)c2c1OCCO2)N1CCN(C2COC2)CC1 [Example 415, (8-((4-(cyclo-hexylamino)-5-(trifluoromethyl)-7H-pyrrolo[2,3-d]pyrimidin-2-yl)amino)-2,3-dihydrobenzo[b] [1,4]dioxin-5-yl) (4-(oxetan-3-yl)piperazin-1-yl)methanone] | < 100 | 301 to 1000 | – | – | – |
| CCNc1nc(Nc2ccc(S(=O)(=O)N3CCC(N4CCOCC4)CC3)c3c2OCCO3)nc2[nH]cc(C(F)(F)F)c12 [Example 430, N^4-ethyl-N^2-(8-((4-morpholino-piperidin-1-yl)sulfonyl)-2,3-dihydro-benzo[b][1,4]dioxin-5-yl)-5-(trifluoromethyl)-7H-pyrrolo[2,3-d]pyrimidine-2,4-diamine] | < 100 | 101 to 300 | 65.3 | 10.8 | 41.6 |
| COCCNc1nc(Nc2ccc(C(=O)N3CCC(N4CCOCC4)CC3)c3c2OCC3)nc2[nH]cc(C(F)(F)F)c12 [Example 443, (7-((4-((2-methoxyethyl)amino)-5-(trifluoromethyl)-7H-pyrrolo[2,3-d]pyrimidin-2-yl)amino)-2,3-dihydrobenzo-furan-4-yl)(4-morpho-linopiperidin-1-yl)methanone] | < 100 | < 100 | – | – | – |
| COc1cc(S(=O)(=O)N2CCC(N3C[C@H]4C[C@@H]3CO4)CC2)ccc1Nc1nc(C2CC2)c2c(C(F)(F)F)c[nH]c2n1 [Example 473, N-(4-((4-((1R,4R)-2-oxa-5-azabicyclo[2.2.1]heptan-5-yl)piperidin-1-yl)sulfonyl)-2-methoxyphenyl)-4-cyclopropyl-5-(trifluoromethyl)-7H-pyrrolo[2,3-d]pyrimidin-2-amine] | < 100 | – | 73.3 | 16.3 | 35.8 |
